Source: PubChem BioAssay AID1259408 (Genetic Toxicology Data Bank (GENE-TOX), 2018)
Activity calls are given as the source filed them. How the calls were made is not given here.

Test system: GENE-TOX genotoxicity assays, various organisms and cells
Assay: GENE-TOX mutagenicity studies
Settings: for call: Assay Type: In vivo carcinogenicity studies
[1] = Species/Cell Type: Nonhuman, Assay Type: Sister-chromatid exchange (SCE) in vitro, Assay Code: SC2+D, Dose Response: With dose response, Evaluation Type: Evaluation B (Post-1980)
[2] = Species/Cell Type: Human lymphocytes, Assay Type: Sister-chromatid exchange (SCE) in vitro, Assay Code: SCL+D, Dose Response: With dose response, Evaluation Type: Evaluation B (Post-1980)
[3] = Species/Cell Type: Human, Assay Type: Sister-chromatid exchange (SCE) in vitro, Assay Code: SC1+D, Dose Response: With dose response, Evaluation Type: Evaluation B (Post-1980)
[4] = Species/Cell Type: Nonhuman, Assay Code: CCG+, Evaluation Type: Evaluation A (Pre-1980)
[5] = Species/Cell Type: Salmonella typhimurium (one or more of the five standard strains: TA98, TA100, TA1535, TA1537, and TA1538), Assay Type: Histidine reverse gene mutation, Ames assay, Assay Code: SAL+*, Activation: With metabolic activation, Evaluation Type: Evaluation A (Pre-1980)
[6] = Species/Cell Type: Syrian hamster embryo (SHE) cells, Assay Type: Cell transformation, clonal assay, Assay Code: CTC+, Evaluation Type: Evaluation A (Pre-1980)
[7] = Species/Cell Type: Salmonella typhimurium (one or more of the five standard strains: TA98, TA100, TA1535, TA1537, and TA1538), Assay Type: Histidine reverse gene mutation, Ames assay, Assay Code: SAL+, Evaluation Type: Evaluation A (Pre-1980)
[8] = Species/Cell Type: Drosophila melanogaster, Assay Type: Sex-linked recessive lethal gene mutation, Assay Code: SRLT, Evaluation Type: Evaluation A (Pre-1980)
[9] = Species/Cell Type: Drosophila melanogaster, Assay Type: Sex-linked recessive lethal gene mutation, Assay Code: SRL+, Evaluation Type: Evaluation A (Pre-1980)
[10] = Species/Cell Type: Human lymphocytes, Assay Type: Sister-chromatid exchange (SCE) in vivo, Assay Code: SCY+, Evaluation Type: Evaluation B (Post-1980)
[11] = Species/Cell Type: Salmonella typhimurium (one or more of the five standard strains: TA98, TA100, TA1535, TA1537, and TA1538), Assay Type: Histidine reverse gene mutation, Ames assay, Assay Code: SALT, Evaluation Type: Evaluation A (Pre-1980)
[12] = Species/Cell Type: Syrian hamster embryo (SA7/SHE) cells, Assay Type: Cell transformation, viral enhanced, Assay Code: CT7+, Evaluation Type: Evaluation A (Pre-1980)
[13] = Species/Cell Type: Escherichia coli polA (W3119 vs P3478), Assay Type: Rec-assay, DNA effects (bacterial DNA repair), Assay Code: RE1+, Evaluation Type: Evaluation A (Pre-1980)
[14] = Species/Cell Type: Nonhuman, Assay Code: CCG+L, Evaluation Type: Evaluation A (Pre-1980)

With `O=CCCCC=O` the mutagenic call (Species/Cell Type: Chinese hamster ovary (CHO) cells, Assay Type: Forward gene mutation at the HPRT locus, Assay Code: CHO-, Evaluation Type: Evaluation B (Post-1980)) was “inactive; negative” and the mutagenic call [1] was “active; positive”.

With `Cc1cc(Cl)cc2c1C(=O)/C(=C1\Sc3cc(Cl)cc(C)c3C1=O)S2` the mutagenic call (Species/Cell Type: Salmonella typhimurium (one or more of the five standard strains: TA98, TA100, TA1535, TA1537, and TA1538), Assay Type: Histidine reverse gene mutation, Ames assay, Assay Code: SAL-, Evaluation Type: Evaluation A (Pre-1980)) was “inactive; negative”.

For `Cc1c(N)nc(C)c2c1[nH]c1ccccc12`, the mutagenic call [2] was “active; positive”, the mutagenic call [3] was “active; positive” and the call [4] was “active; positive”. For the same compound, the mutagenic call [5] was “active; positive” and the mutagenic call [6] was “active; positive”.

For `C=C1C(=O)O[C@@H]2C[C@@H](C)[C@@H]3C[C@H](O)O[C@@H](O)[C@@]3(C)C[C@H]12`, the mutagenic call [7] was “active; positive”.

`CC1CCCC(C)N1N=O` (centres undefined) was tested, and the mutagenic call (Species/Cell Type: Drosophila melanogaster, Assay Type: Aneuploidy, partial sex chromosome loss, chromosome aberrations, Assay Code: DAPT, Evaluation Type: Evaluation A (Pre-1980)) was “no conclusion”, the mutagenic call (Species/Cell Type: Drosophila melanogaster, Assay Type: Aneuploidy, whole sex chromosome loss, chromosome aberrations, Assay Code: DACT, Evaluation Type: Evaluation A (Pre-1980)) was “no conclusion” and the mutagenic call [8] was “no conclusion”. The call (Species/Cell Type: Nonhuman, Assay Code: CCGT, Evaluation Type: Evaluation A (Pre-1980)) was “no conclusion”, the mutagenic call (Species/Cell Type: Saccharomyces cerevisiae, Assay Type: Forward gene mutation, Assay Code: YEF-*, Activation: With metabolic activation, Evaluation Type: Evaluation A (Pre-1980)) was “inactive; negative” and the mutagenic call (Species/Cell Type: Saccharomyces cerevisiae, Assay Type: Reverse gene mutation, Assay Code: YER+*, Activation: With metabolic activation, Evaluation Type: Evaluation A (Pre-1980)) was “active; positive”.

In the case of `CCOS(=O)(=O)CCl`, the mutagenic call (Species/Cell Type: Schizosaccharomyces pombe, Assay Type: Reverse gene mutation, Assay Code: YEZ+, Evaluation Type: Evaluation A (Pre-1980)) is reported as “active; positive”.

With `CC(=O)Nc1ccc(N=NN(C)C)cc1` the mutagenic call [9] was “active; positive” and the mutagenic call (Species/Cell Type: Saccharomyces cerevisiae, Assay Type: Mitotic recombination or gene conversion, Assay Code: YEH+/-*, Activation: With metabolic activation, Evaluation Type: Evaluation A (Pre-1980)) was “inactive; positive without activation, negative with activation”.

With `N[C@@H](Cc1ccc(N(CCCl)CCCl)cc1)C(=O)O` the mutagenic call [9] was “active; positive”, the mutagenic call (Species/Cell Type: Drosophila melanogaster, Sex: Male, Assay Type: Heritable translocation test, chromosome aberrations, Assay Code: DHTT, Evaluation Type: Evaluation A (Pre-1980)) was “no conclusion” and the mutagenic call (Species/Cell Type: Escherichia coli polA (W3110 vs P3478), Assay Type: Rec-assay, DNA effects (bacterial DNA repair), Assay Code: RE2+, Evaluation Type: Evaluation A (Pre-1980)) was “active; positive”. For the same compound, the mutagenic call (Species/Cell Type: Escherichia coli polA (W3119 vs P3478), Assay Type: Rec-assay, DNA effects (bacterial DNA repair), Assay Code: RE1T, Evaluation Type: Evaluation A (Pre-1980)) was “no conclusion”, the mutagenic call (Species/Cell Type: Human cell culture, Assay Type: Chromosome aberrations in vitro, Assay Code: CYZ+, Evaluation Type: Evaluation A (Pre-1980)) was “active; positive” and the mutagenic call (Species/Cell Type: Human lymphocytes, Assay Type: Sister-chromatid exchange (SCE) in vitro, Assay Code: SCL+, Evaluation Type: Evaluation A (Pre-1980)) was “active; positive”. For the same compound, the mutagenic call [2] was “active; positive”, the mutagenic call [10] was “active; positive” and the mutagenic call [3] was “active; positive”. For the same compound, the mutagenic call (Species/Cell Type: Mouse (C3H/10T1/2) cells, Assay Type: Cell transformation, Assay Code: CTH+, Evaluation Type: Evaluation A (Pre-1980)) was “active; positive”, the mutagenic call (Species/Cell Type: Nonhuman, Assay Type: Chromosome aberrations in vitro, Assay Code: CY&+, Evaluation Type: Evaluation A (Pre-1980)) was “active; positive” and the call [4] was “active; positive”. For the same compound, the mutagenic call (Species/Cell Type: Nonhuman, Assay Type: Sister-chromatid exchange (SCE) in vitro, Assay Code: SC2+D, Dose Response: With dose response, Evaluation Type: Evaluation A (Pre-1980)) was “active; positive” and the mutagenic call [7] was “active; positive”.

`CC1=CC(=C(c2ccc(N)cc2)c2ccc(N)cc2)C=CC1=N` was tested, and the mutagenic call (Species/Cell Type: Bacillus subtilis (H17 vs M45), Assay Type: Rec-assay, spot test, DNA effects (bacterial DNA repair), Assay Code: REWT, Evaluation Type: Evaluation A (Pre-1980)) was “no conclusion”.

In the case of `CC(C)(C)N(CCCC(=O)O)N=O`, the mutagenic call [11] is reported as “no conclusion”.

In the case of `C[CH2][Pb]([CH2]C)([CH2]C)[CH2]C`, the mutagenic call [12] is reported as “active; positive”.

For `CN1C(=O)CN=C(c2ccccc2)c2cc(Cl)ccc21`, the mutagenic call [10] was “active; positive”, the mutagenic call (Species/Cell Type: Human, Assay Type: Sister-chromatid exchange (SCE) in vitro, Assay Code: SC1T, Evaluation Type: Evaluation B (Post-1980)) was “no conclusion” and the mutagenic call (Species/Cell Type: Mammalian polychromatic erythrocytes, Assay Type: Micronucleus test, chromosome aberrations, Assay Code: MNTT, Evaluation Type: Evaluation A (Pre-1980)) was “no conclusion”. For the same compound, the mutagenic call [11] was “no conclusion” and the mutagenic call (Species/Cell Type: Salmonella typhimurium, Assay Type: Forward and reverse gene mutation, body fluid assay, Assay Code: BFU+, Evaluation Type: Evaluation A (Pre-1980)) was “active; positive”.

For `CN(N=O)C(=O)Oc1cccc2c1OC(C)(C)C2`, the mutagenic call [1] was “active; positive”.

`CS(=O)(=O)OCCCNCCCOS(C)(=O)=O` was tested, and the mutagenic call [7] was “active; positive”.

`O=C(CCl)CCl` was tested, and the mutagenic call [8] was “no conclusion” and the mutagenic call [7] was “active; positive”.

`O=[N+]([O-])c1ccnc2ccccc12` was tested, and the mutagenic call (Species/Cell Type: Escherichia coli polA (W3119 vs P3478), Assay Type: Rec-assay, DNA effects (bacterial DNA repair), Assay Code: RE1-, Evaluation Type: Evaluation A (Pre-1980)) was “inactive; negative”.

For `O=C1CN(/N=C/c2ccc([N+](=O)[O-])o2)C(=O)N1CO`, the mutagenic call (Species/Cell Type: Human, Sex: Male, Assay Type: Sperm morphology, Assay Code: SPHT, Evaluation Type: Evaluation A (Pre-1980)) was “no conclusion”.

In the case of `COC(=O)c1ccc(N=Nc2ccc(N(C)OC(C)=O)cc2)cc1`, the mutagenic call [7] is reported as “active; positive”.

For `CN=C(N)N`, the mutagenic call (Species/Cell Type: Human diploid fibroblasts, Assay Type: Unscheduled DNA synthesis (UDS) in vitro, DNA effects, Assay Code: UDH-, Evaluation Type: Evaluation A (Pre-1980)) was “inactive; negative”.

For `O=[N+]([O-])c1ccc(-c2ccccc2)cc1`, the mutagenic call [13] was “active; positive”, the mutagenic call (Species/Cell Type: Neurospora crassa, Assay Type: Aneuploidy, chromosome aberrations, Assay Code: NEN-, Evaluation Type: Evaluation A (Pre-1980)) was “inactive; negative” and the call [14] was “active; positive”. The mutagenic call (Species/Cell Type: Nonhuman, Assay Type: Sister-chromatid exchange (SCE) in vitro, Assay Code: SC2+, Evaluation Type: Evaluation B (Post-1980)) was “active; positive”, the mutagenic call (Species/Cell Type: Nonhuman, Assay Type: Sister-chromatid exchange (SCE) in vivo, Assay Code: SC3+D, Dose Response: With dose response, Evaluation Type: Evaluation B (Post-1980)) was “active; positive” and the mutagenic call (Species/Cell Type: Saccharomyces cerevisiae, Assay Type: Mitotic recombination or gene conversion, Assay Code: YEH-, Evaluation Type: Evaluation A (Pre-1980)) was “inactive; negative”. The mutagenic call [7] was “active; positive”, the mutagenic call (Species/Cell Type: Salmonella typhimurium, Assay Type: Forward and reverse gene mutation, host-mediated assay, Assay Code: HMA+, Evaluation Type: Evaluation A (Pre-1980)) was “active; positive” and the mutagenic call [12] was “active; positive”. The mutagenic call [6] was “active; positive”.

With `Cn1c(=O)c2c([nH]c(=O)n2C)n(C)c1=O` the mutagenic call (Species/Cell Type: Allium cepa, Assay Type: Chromosome aberrations, Assay Code: ALC-, Evaluation Type: Evaluation A (Pre-1980)) was “inactive; negative”.

With `CNc1ccc(C(=C2C=CC(=[N+](C)C)C=C2)c2ccc(N(C)C)cc2)cc1` the mutagenic call (Species/Cell Type: Saccharomyces cerevisiae, Assay Type: Reverse gene mutation, Assay Code: YER-, Evaluation Type: Evaluation A (Pre-1980)) was “inactive; negative”.

In the case of `Cc1c2ccccc2c(CO)c2c3c(ccc12)[C@@H](O)[C@H](O)C=C3`, the mutagenic call (Species/Cell Type: Chinese hamster lung (V79) cells, Assay Type: Forward gene mutation at the HPRT or ouabain locus, Assay Code: V79+, Evaluation Type: Evaluation A (Pre-1980)) is reported as “active; positive” and the call [14] is reported as “active; positive”.

`O=Nc1ccc2ccccc2c1` was tested, and the mutagenic call [7] was “active; positive”.

For `O=C(CCCCCCCCC(=O)N1CC1)N1CC1`, the mutagenic call (Species/Cell Type: Hordeum vulgare (barley), Assay Type: Chromosome aberrations, Assay Code: HOC+, Evaluation Type: Evaluation A (Pre-1980)) was “active; positive” and the mutagenic call (Species/Cell Type: Vicia faba, Assay Type: Chromosome aberrations, Assay Code: VIC+D, Dose Response: With dose response, Evaluation Type: Evaluation A (Pre-1980)) was “active; positive”.

With `CC1CN(N=O)C(C)CN1N=O` (centres undefined) the mutagenic call [5] was “active; positive”.

`BrC(Br)C(Br)Br` was tested, and the mutagenic call [13] was “active; positive”.

In the case of `CCC(=O)O[C@H]1CC[C@H]2[C@@H]3CCC4=CC(=O)CC[C@]4(C)[C@H]3CC[C@]12C`, the mutagenic call (Species/Cell Type: Human, Sex: Male, Assay Type: Sperm morphology, Assay Code: SPH+, Evaluation Type: Evaluation A (Pre-1980)) is reported as “active; positive” and the call [4] is reported as “active; positive”.
